Laboratory results taken from patent US20100267054A1, “Measuring The Activity Of Proteases” (priority 2007, published 2010).

Experiments:
[1] = test system: protease activity of human serum; assay: Effect of E64 and CA-074 on the protease activities of human sera with and without treatment by immobilised papain (AFC method); assay type: biochemical; details: two normal human sera; for protease activity of sera after pre-treatment with immobilised papain, effect of inhibitor: pre-treated with immobilised papain; for small proteolytic activity of sera without pre-treatment, effect of inhibitor: without pre-treatment with immobilised papain
Method: FIG. 7 Effect of the inhibitors E64 and CA074 on the activity of purified cathepsin B or the protease activities of sera with and without treatment by immobilised papain. The tests were carried out with the AFC method.
(§1) The measurement of the fluorescence was done with 96-well microtiter plates by means of a fluorescence reader (for measurements with AMC: excitation at 355 nm, fluorescence at 450 nm) (for measurements with AFC: excitation at 400 nm, fluorescence at 508 nm).
(§2) In the AFC-method the assay run for the measurement of the activity was carried out in test samples at 37° C. The content of the test sample was transferred into the microtiter plate just before the measurement of the fluorescence.
The enzymatic activities of cathepsin B in small concentrations were measured of two “normal” human sera with and without pre-treatment with immobilised papain (FIG. 7).

[2] = target: T1, cathepsin B (Bos taurus, UniProt P07688); assay: Inhibition of cathepsin B by cystatin A; assay type: biochemical, bovine; details: 700 nM cystatin A; 5 and 10 ng cathepsin B per assay run
T1 construct: cathepsin B (purified from the bovine spleen, 10 units/ml) was used in the test; from tissue; host or cells: bovine spleen
Text: a1. Introduction: The activity measurement of cathepsin B is based on the cleavage of a dipeptide substrate • Z-Arg-Arg-fluorophore→Z-Arg-Arg+fluorophore (Z=protecting group, Arg=basic amino acid arginine)
as §1, §2
The inhibition of cathepsin B by the known inhibitor cystatin A was tested in vitro with two different cathepsin B concentrations.

Row | Molecule | protease activity of sera after pre-treatment with immobilised papain, effect of inhibitor [1] | small proteolytic activity of sera without pre-treatment, effect of inhibitor [1] | inhibition of cathepsin B [2]
1 | CCCNC(=O)[C@H]1O[C@@H]1C(=O)N[C@H](C(=O)N1CCC[C@H]1C(=O)O)[C@@H](C)CC [CA-074] | reduced this activity to the value which was measured in the samples not pre-treated | inhibited neither | –
2 | CC(C)C[C@H](NC(=O)[C@H]1O[C@@H]1C(=O)O)C(=O)NCCCCN=C(N)N [E64] | reduced this activity to the value which was measured in the samples not pre-treated | inhibited neither | –
3 | cystatin A: known protein inhibitor of cathepsin B (protein, UniProt P01040 1-98, looked up) Cystatin-A: MIPGGLSEAKPATPEIQEIVDKVKPQLEEKTNETYGKLEAVQYKTQVVAGTNYYIKVRAGDNKYMHLKVFKSLPGQNEDLVLTGYQVDKNKDDELTGF | – | – | > 95%
